Data from paper PMC8894198, “Biosynthetic Microcin J25 Exerts Strong Antibacterial, Anti-Inflammatory Activities, Low Cytotoxicity Without Increasing Drug-Resistance to Bacteria Target” (Frontiers in Immunology, 2022).
Where a SMILES comes first, the peptide text is derived from it. Bridges are numbered along the chain shown (N, C = ends).

What was measured:
E. coli K88 = assay: Electron microscopy (SEM, TEM) of treated bacteria; format: cell-based
Method: Scanning electron microscope (SEM) was performed to test the morphological features of E. coli K88 cells by comparing cells incubated in the absence (control) or presence of MccJ25. For SEM sample preparation, the standard protocol was used based on our previous report ([26]) with slight modifications. Overnight E. coli K88 cultures were inoculated and grown to the mid-logarithmic phase in the fresh LB medium at 37°C for 2 h, then harvested by centrifugation, washed twice with PBS and re-suspended in the same buffer. Approximately 2 × 10^7 cells were incubated with 1 and 2 × MIC MccJ25 at 37°C for 1 h. Thereafter, cells were pooled and centrifuged at 5000 g for 5 min. Bacterial pellets were washed 3 times with PBS and centrifuged after each wash. Cells were fixed with 2.5% glutaraldehyde at 4°C overnight and washed 2 times with PBS. They were then harvested, post-fixed with 1% osmium tetroxide for 1 h and dehydrated for 15 min each in a graded ethanol series (50, 70, 80, 90, 95 and 100%). Cells were then treated with absolute acetone for 20 min, a mixture of alcohol and iso-amyl acetate (1:1) for 30 min and pure iso-amyl acetate for 1 h. Lastly, samples were dehydrated in a critical point dryer (Model HCP-2, Hitachi, Chiyoda-ku, Tokyo, Japan) with liquid CO2. The dehydrated samples were coated with gold-palladium and observed by SEM (Model EVO MA10 XVP, Carl Zeiss, Jena, GmbH, Germany). […]

[1] = tested on: cocktail of MDR E. coli strains (521ZQE, AZ1, WWE921A-2) in C57BL/6 J mice; assay: Cocktail of MDR E. coli strains challenge in mice, MccJ25 pretreatment; format: in vivo
Excerpt: 4-week-old C57BL/6 J female mice [initial body weight (BW) 15.23 ± 0.09] were purchased from Charles River Laboratories (Beijing, China) and raised under standard conditions. The producer was described in “Mice Model” section. […] Mice were maintained in a 3-d acclimatization period of time. Afterwards, 36 mice were randomly separated into three experimental groups based on BW: Uninfected group, control; Infected group; MccJ25+infected group, 12 mice per group in four cages, three mice/cage, total of 12 cages. Cocktail of MDR E. coli strains infection producers were performed as our previous described previously ([30]), experimental roadmap was shown in Figure 10A . A single of colony of MDR E. coli strains 521ZQE, AZ1, and WWE921A-2 were incubated in LB medium and grew to stationary stage (OD600 > 3), respectively. All mice were pretreated 0.2 ml PBS (control and infected group) or 0.2 ml PBS containing with 9.1 mg/kg/BW MccJ25 (MccJ25+infected group) for 3 d (once/day) prior to infection. Infected mice and MccJ25+infected mice received 0.2 ml sterile PBS containing 5 × 10^8 cocktail of MDR E. coli strains by oral gavage. The control group still received 0.2 ml of sterile PBS by gavage for 2 d. The concentration of biosynthetic MccJ25 was selected based on our previous study ([24]). After 3 d, mice were euthanized friendly, intestinal tissues, organs and serum were obtained. Fresh fecal, tissues, liver, and spleen were immediately placed on ice (1-2 h) and transported to the laboratory to count the specific bacteria in the laboratory. Serum was kept in -20°C and part of jejunum, colon, and spleen were stored in the -80°C for cytokines analysis.
In the LPS-challenged mice experiment, lifespan of mice was monitored for 72 h. In the cocktail of MDR E. coli strains infection experiment, BW change, rectal temperature, diarrhea scores and fecal image, or survival rate were measured. For the diarrhea score evaluation producer was referred to previous study ([24]).
The 0.1 g fresh jejunum, ileum, proximal colon, feces, liver, and spleen were collected and kept in sterile tubes containing 0.9 ml sterile physiological saline solution. Then, cryogenic lapping instrument (Shanghai Jingxin Industrial Development Co., Ltd., China) was applied to prepare the homogenate. 0.1 mL indicated samples prepared by ten-fold serial dilutions method were plated on indicated antibiotics MacConkey (OXOID, Hampshire, UK) and ChromAgar™ (OXOID, Hampshire, UK) plates. These plates were cultured overnight at 37°C to count colonies. Colony numbers were expressed as log 10 CFU/g of samples. All counts were performed in triplicate. Colonies were observed on the MacConkey agar and ChromAgar plates in the absence of indicated antibiotics, we considered that they were enterobacteria-like bacterium belonging to the class of family Enterobacteriaceae.
Quantification of total bacteria, E. coli, Lactobacillus, and Bifidobacterium was done using PCR. In brief, total microbial DNA from cecal digesta was obtained. The total bacteria, Lactobacillus, Bifidobacterium, E. coli primers were synthesized in Invitrogen (Shanghai, China), which are listed in Table S1 . Standard curves of indicated bacteria were generated based on the construction of standard plasmids containing the 16S rRNA genes. The copy numbers of total bacteria, Lactobacillus, Bifidobacterium, and E. coli were calculated referring to standard curves as described previously ([30]).
The concentrations of tumor necrosis factor-α (TNF-α), interleukin-6 (IL-6), IL-4, interferon (IFN)-γ, and nitric oxide (NO) in serum were measured. In addition, TNF-α and NO levels were also measured in the supernatant of RAW264.7 cells. ELISA was performed using a commercial ELISA kit (eBioscience, San Diego, USA). LPS levels in plasma were analyzed using the QCL-1000 kit (Xiamen, China) based on the manufacturer’s standards. […]

[2] = 9.1 mg/kg/BW oral gavage for 3 d before infection
[3] = ELISA, vs infected group, n = 6
[4] = jejunum, colon and spleen, qPCR, vs infected mice

SMILES: CC[C@H](C)[C@H](NC(=O)CNC(=O)[C@@H](NC(=O)[C@H](Cc1ccccc1)NC(=O)[C@H](Cc1ccc(O)cc1)NC(=O)[C@@H]1CCC(=O)NCC(=O)NCC(=O)N[C@@H](C)C(=O)NCC(=O)N[C@@H](Cc2c[nH]cn2)C(=O)N[C@@H](C(C)C)C(=O)N2CCC[C@H]2C(=O)N1)C(C)C)C(=O)NCC(=O)N[C@H](C(=O)N1CCC[C@H]1C(=O)N[C@H](C(=O)N[C@@H](CO)C(=O)N[C@@H](Cc1ccccc1)C(=O)N[C@@H](Cc1ccc(O)cc1)C(=O)NCC(=O)O)[C@@H](C)CC)[C@@H](C)O [MccJ25, microcin J25] (GGAGHVPEYFVGIGTPISFYG-OH; lactam N-8 (inferred); C-terminus assumed)
- cell morphology by SEM (E. coli K88; 1 × and 2 × MIC, 60 min): filamentous and elongated
- cell membranes by TEM (E. coli K88; 1 ×, 2 × and 4 × MIC, 0.5 and 1 h): disrupted
- body weight [1, 2]: increasing BW
- diarrhea incidence [1, 2]: decreasing diarrhea incidence
- rectal temperature [1, 2]: increasing
- lifespan / survival ([1]; 9.1 mg/kg/BW oral gavage once/day for 3 d before infection, n = 12): prolonging the lifespan
- serum IL-4 [1, 3]: higher IL-4
- serum proinflammatory cytokines (TNF-α, IFN-γ, IL-6) [1, 3]: lower proinflammatory cytokines
- MDR E. coli colonization in liver and spleen ([1]; d 3 after infection, n = 6): effectively reduced the degree of clinically source MDR E. coli colonization and expansion
- IL-10 mRNA [1, 4]: high anti-inflammatory cytokine IL-10
- mRNA of proinflammatory indicators (TNF-α, IL-6, IFN-γ, IL-1β, TLR4, NF-κB) [1, 4]: lower proinflammatory indicators
- MDR E. coli in the intestines (jejunum, ileum, colon) ([1]; plate counts, d 3 after infection): significantly reduced the number and colonization
- copy number of E. coli in cecal contents ([1]; real-time qPCR): sharply decreased the copy number
- copy numbers of Lactobacillus, Bifidobacterium in cecal contents ([1]; real-time qPCR): significantly increased the copy numbers
- total bacteria copy numbers in cecal contents ([1]; real-time qPCR): no significant difference
- bacterial load in the feces ([1]; vs infected group, n = 6): markedly decreased the bacterial load
